Test results reported in patent US20250154212A1, “METHOD OF DISRUPTING MEMORY AND LIPOPEPTIDE FOR USE IN SUCH METHOD” (The Research Foundation for The State University of New York, priority 2023, published 2025).

What was measured:
[1] = test system: auditory-cued fear/threat memory; experiment: Auditory-cued fear/threat conditioning, infusion into basolateral amygdala, wild-type mice; type: in vivo, mouse; conditions: 6 nmol in 0.3 μL into each BLA, tested 1 day post-injection
Method: Mice were 8-10 weeks old at the time of cannulation and 9-11 weeks old at the beginning of behavioral experiments. Mice were housed with cage-mates in plastic cages and provided with food and water ad libitum. Mice were maintained on a 12 h light/dark cycle (lights on at 7:00 am) and behavioral experiments began at 9:00 am.
Mice were injected intraperitoneally (1 ml/100 g body weight) with an anesthetic cocktail containing ketamine (10 mg/ml) and xylazine (2 mg/ml). Mice were provided with analgesic treatment prior to surgery (carprofen; 5 mg/ml). Guide cannulae (Plastics One, Roanoke, VA) were implanted bilaterally in the basolateral amygdala (from bregma: AP-1.7 mm; L+/−3.0 mm; DV-4.4 mm) and secured to the skull with three jeweler's screws and dental cement. Antisedan (0.66 ml/100 g body weight of 0.5 mg drug/ml solution) was given via i.p. injection after surgery to reverse the anesthesia.
For 7 days following surgery, mice were handled by freely exploring the experimenter's palm for 2-5 min. Mice were habituated, trained, and tested in the same conditioning box (Coulbourn Habitest, Coulboum Instruments) with differing floors and walls to produce two different contexts (Context A and Context B). […] Freezing behavior (cessation of all movement except breathing) during the tone on Test 1 and Test 2 was scored by an experimenter blind to the conditions. […]

[2] = test system: KIBRA with conventional PKCs (PKCα, PKCβI, PKCβII, PKCγ); experiment: BiFC assay of KIBRA with conventional PKCs in HEK293T cells; type: cell-based, human; conditions: 10 μM
Method: KIBRA-PKMζ BiFC was performed as previously described (28), using pVen1-FLAG-KIBRA and pVen2-HA-PKMζ, in which PKMζ was cloned between EcoR1 and BamH1 sites. The constructs pVen1 and pVen2 encode the N-terminus (amino acids 1-154) and C-terminus (amino acids 155-238) of the Venus protein, respectively, and the Venus fragments were on the N-terminal of the fusion proteins. pVen2-HA-PKMζ[PKCι/λ-P291Q;F297S] was generated by site-directed mutagenesis using forward-cctggagAagcAAatceggatcccccggtCcctgtccgte and reverse-gacggacaggGaccgggggatccggatTTgctTctccagg primers and the QuickChange II XL Site-Directed Mutagenesis Kit (Agilent Technologies), following manufacturer's instructions. Additional pVen2-HA-PKC isoforms and pVen2-HA-CaMKIIα in the pVen2-HA vector were generated by cloning the N-terminus of the coding sequence of each kinase (table S1) to obtain an in-frame fusion at the C-terminus of the pVen2-HA. Human versions of KIBRA and kinases were used, and all PCR amplified sequences and constructs were verified by DNA sequencing.
HEK293T cells were cultured in Dulbecco's Modified Eagle's Medium supplemented with 10% heat-inactivated fetal bovine serum, 100 U/ml penicillin, […] streptomycin, 2 mM glutamine, and 10 mM HEPES in a T75 tissue culture flask with canted neck and ventilated cap. […]

## O=S(=O)(O)c1cc(O)c2c(S(=O)(=O)O)cc(S(=O)(=O)O)cc2c1 [ζ-stat, 1-naphthol-3,6,8-trisulphonic acid]
[1]
  auditory-cued fear/threat memory retention (% time freezing to tone): impairs memory retention
[1]; listed as z-stat
  auditory-cued fear/threat memory retention (% time freezing to tone): disrupts fear/threat memory retention
[2]
  effect on BiFC of KIBRA with conventional PKCs: has no effect
